{"source": "patent US9260484B2", "about": "“Small molecule composite surfaces as inhibitors of protein-protein interactions” (Ohio State Innovation Foundation, priority 2011, dated 2016)", "key": {"FKBP": {"biological_target": "T1, FKBP (Homo sapiens, UniProt P62942)", "T1 construct": "200 nM recombinant FKBP", "assay": "fluorescence polarization (FA) competition assay for binding to FKBP", "protocol": "To facilitate solid-phase synthesis, an invariant glutamine was added to the C-terminal side of the R^1 residue, for the purpose of backbone peptide cyclization and providing an anchor for attachment to the solid support. For this set of compounds, the dipeptide Ala-Ala was used as the effector domain. The rapalogs were tested for binding to FKBP by a fluorescence polarization competition assay^22,23. SLF^24, was labeled with the fluorescent dye fluorescein^23. Binding of the labeled ligand to FKBP increases its fluorescence anisotropy (FA) values. Addition of an unlabeled ligand to the reaction inhibits the binding of SLF to FKBP and therefore decreases the FA values. […] Subsequently, the IC50 values were converted into KI values based on the Cheng-Prusoff equation.\nA previously reported synthetic ligand of FKBP^46 (SLF in FIG. 2), was labeled with the fluorescent dye fluorescein^20. Binding of the labeled ligand to FKBP increases its fluorescence anisotropy (FA) value.\nThe fluorescence polarization based competition assay was performed in a 384-well plate. […] After the addition of the rapalogs as the last component, the binding reactions were incubated for 1 h at room temperature to reach binding equilibrium. Anisotropy values were measured on a FlexStation 3 plate reader (Molecular Devices, Sunnyvale, Calif.)."}, "K-Ras and RalGDS": {"biological_target": "K-Ras and RalGDS (Homo sapiens, UniProt P01116, G12V)", "sequence (P01116 1-188 isoform P01116-2 G12V)": "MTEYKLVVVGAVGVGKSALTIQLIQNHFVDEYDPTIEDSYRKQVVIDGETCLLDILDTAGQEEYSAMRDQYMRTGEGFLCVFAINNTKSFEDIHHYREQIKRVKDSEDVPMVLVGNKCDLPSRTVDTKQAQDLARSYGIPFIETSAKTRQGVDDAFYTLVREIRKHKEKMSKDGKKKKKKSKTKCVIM", "assay": "bead assay: K-Ras binding to immobilized Myc-tagged effector protein", "conditions": "10 μM compound; Texas red-labeled GST-K-Ras 100 nM", "description": "The Myc-tagged effector proteins were immobilized on protein A-beads with an anti-Myc antibody."}, "[1]": {"system": "H358 lung cancer cell line", "assay": "MTT viability assay", "format": "cell-based, human", "protocol": "(§1) FIG. 14. MTT viability assay with H358 and A549 lung cancer cell lines (both have mutant K-Ras). The assay was performed to assess the effect of compound B12 on proliferation and survival of these cell lines.\n(§2) Finally, preliminary cellular assays were performed with compound […]. Singh et al. used RNA interference to down regulate mutant K-RAS in a large number of human cancer cell lines.^102 They reported that the H358 cell line is very sensitive to losing mutant K-Ras whereas the A549 cell line is hardly affected. Both are lung cancer cell lines."}, "[2]": {"system": "A549 lung cancer cell line", "assay": "MTT viability assay", "format": "cell-based, human", "protocol": "as §1, §2"}, "K-Ras and Tiam": {"biological_target": "K-Ras and Tiam (Homo sapiens, UniProt P01116, G12V)", "sequence (P01116 1-188 isoform P01116-2 G12V)": "as above", "assay": "bead assay: K-Ras binding to immobilized Myc-tagged effector protein", "conditions": "10 μM compound; Texas red-labeled GST-K-Ras 100 nM", "protocol": "(§3) Compound B12 was also assayed for its ability to inhibit the PPI between K-Ras and its effector proteins including PI3 kinase, Tiam, and RalGDS. The Myc-tagged effector proteins were immobilized on protein A-beads with an anti-Myc antibody."}, "K-Ras and PI3 kinase": {"biological_target": "K-Ras and PI3 kinase (Homo sapiens, UniProt P01116, G12V)", "sequence (P01116 1-188 isoform P01116-2 G12V)": "as above", "assay": "bead assay: K-Ras binding to immobilized Myc-tagged effector protein", "conditions": "10 μM compound; Texas red-labeled GST-K-Ras 100 nM", "protocol": "as §3"}, "FKBP (no GST)": {"biological_target": "FKBP (no GST) (Homo sapiens, UniProt P62942)", "sequence (P62942 whole entry)": "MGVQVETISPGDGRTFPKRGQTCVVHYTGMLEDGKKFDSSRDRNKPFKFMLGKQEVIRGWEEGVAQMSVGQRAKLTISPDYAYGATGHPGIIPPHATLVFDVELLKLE", "assay": "fluorescence polarization binding of FITC-labeled compound to FKBP"}, "[3]": {"conditions": "Table 2, converted from IC50 by Cheng-Prusoff equation, read-out: Ki"}}, "note": "Entries after “also recorded” stand apart in the source; their conditions may differ. Where two headings read alike, the source gives them in different places. Numbered stars: 1 amine (or outer) side, 2 acyl side, 3 side chain; on linkers, the order of the positions; unused ones are H or OH. Bridge positions count the residues as written; N and C are the ends. Square brackets hold non-standard residues; d marks the D form. Peptide text beside a SMILES is read from it. dβ3h(hPhe) = O=C(C[C@@H](CCc1ccccc1)N[*:1])[*:2]; Phe(4-F) = N[C@@H](Cc1ccc(F)cc1)C(=O)O; d2Nal = N[C@H](Cc1ccc2ccccc2c1)C(=O)O; X1 = CC(C)(CO[*:2])C(=O)C(=O)[*:1]; dNle = CCCC[C@@H](N)C(=O)O; Pip = O=C(O)[C@@H]1CCCCN1"}
{"smiles": "C[C@@H]1NC(=O)[C@H](C)NC(=O)[C@H](CCC(N)=O)NC(=O)C[C@@H](CCc2ccccc2)NC(=O)[C@@H]2CCCCN2C(=O)C(=O)C(C)(C)COC(=O)[C@H]([C@@H](C)O)NC(=O)[C@H](C)NC1=O", "note": "[Compound 2r] ([Pip][dβ3h(hPhe)]QAAAT; linker N-C via X1)", "values": [{"measurement": "Ki", "setting": "FKBP; [3]", "result": "0.3 ± 0.1", "unit": "µM"}]}
{"smiles": "C[C@@H]1NC(=O)[C@H](C)NC(=O)[C@H](CCC(N)=O)NC(=O)C[C@H](CCc2ccccc2)NC(=O)[C@@H]2CCCCN2C(=O)C(=O)C(C)(C)COC(=O)[C@H](Cc2ccccc2)NC1=O", "note": "[Compound 2j]", "values": [{"measurement": "Ki", "setting": "FKBP", "result": "0.8 ± 0.1", "unit": "µM"}]}
{"smiles": "C[C@@H]1NC(=O)[C@H](C)NC(=O)[C@H](CCC(N)=O)NC(=O)C[C@@H](CCc2ccccc2)NC(=O)[C@@H]2CCCCN2C(=O)C(=O)C(C)(C)COC(=O)[C@@H](C)NC(=O)[C@H](C)NC1=O", "note": "[Compound 2p] ([Pip][dβ3h(hPhe)]QAAA[dA]; linker N-C via X1)", "values": [{"measurement": "Ki", "setting": "FKBP; [3]", "result": "0.18 ± 0.06", "unit": "µM"}]}
{"smiles": "CCCC[C@H]1NC(=O)[C@H](Cc2ccc(F)cc2)NC(=O)[C@H](CCCNC(=N)N)NC(=O)[C@@H](Cc2ccc3ccccc3c2)NC(=O)[C@H](CCCNC(=N)N)NC(=O)[C@H](CCCNC(=N)N)NC(=O)[C@H](CCC(N)=O)NC(=O)C[C@@H](CCc2ccccc2)NC(=O)[C@@H]2CCCCN2C(=O)C(=O)C(C)(C)COC1=O", "note": "[Compound C12] ([Pip][dβ3h(hPhe)]QRR[d2Nal]R[Phe(4-F)][dNle]; linker N-C via X1)", "values": [{"measurement": "binding of GST-KRas to immobilized RalGDS", "setting": "K-Ras and RalGDS", "result": "completely blocked; also recorded: Disruption"}, {"measurement": "sensitivity of cells to compound", "setting": "[1]; FIG. 14", "result": "sensitive"}, {"measurement": "IC50", "setting": "[1]; H358 cells, proliferation and survival, preliminary", "result": "~10", "unit": "µM"}, {"measurement": "IC50", "setting": "[2]; A549 cells, proliferation and survival, preliminary", "result": "~50", "unit": "µM"}, {"measurement": "sensitivity of cells to compound", "setting": "[2]; FIG. 14", "result": "significantly less sensitive"}, {"measurement": "binding of GST-KRas to immobilized Tiam", "setting": "K-Ras and Tiam", "result": "completely blocked"}, {"measurement": "binding of GST-KRas to immobilized PI3 kinase", "setting": "K-Ras and PI3 kinase", "result": "completely blocked"}]}
{"smiles": "C[C@@H]1NC(=O)[C@H](C)NC(=O)[C@H](CCC(N)=O)NC(=O)[C@H](C)NC(=O)[C@@H]2CCCCN2C(=O)C(=O)C(C)(C)COC(=O)[C@@H](C)NC1=O", "note": "[Compound 2a] (HELM PEPTIDE1{[O=C([C@@H]1CCCCN1[*:1])[*:2]].A.Q.A.A.[dA]}|CHEM1{[CC(C)(CO[*:2])C(=O)C(=O)[*:1]]}$PEPTIDE1,CHEM1,1:R1-1:R1|PEPTIDE1,CHEM1,6:R2-1:R2$$$V2.0)", "values": [{"measurement": "Ki", "setting": "FKBP; [3]", "result": "7 ± 1", "unit": "µM"}]}
{"smiles": "CCCC[C@H]1NC(=O)[C@H](Cc2ccc(F)cc2)NC(=O)[C@H](CCCN=C(N)N)NC(=O)[C@@H](Cc2ccc3ccccc3c2)NC(=O)[C@H](CCCN=C(N)N)NC(=O)[C@H](CCCN=C(N)N)NC(=O)[C@H](CCC(N)=O)NC(=O)C[C@@H](CCc2ccccc2)NC(=O)[C@@H]2CCCCN2C(=O)C(=O)C(C)(C)COC1=O", "note": "[Compound C12] ([Pip][dβ3h(hPhe)]QRR[d2Nal]R[Phe(4-F)][dNle]; linker N-C via X1)", "values": [{"measurement": "Kd", "setting": "FKBP (no GST)", "result": 0.5, "unit": "µM"}]}
{"smiles": "C[C@@H]1NC(=O)[C@H](CCC(N)=O)NC(=O)C[C@@H](CCc2ccccc2)NC(=O)[C@@H]2CCCCN2C(=O)C(=O)C(C)(C)COC(=O)[C@H](Cc2ccccc2)NC(=O)[C@H](C)NC(=O)[C@@H](C)NC1=O", "note": "[Compound 2s] ([Pip][dβ3h(hPhe)]QA[dA]AF; linker N-C via X1)", "values": [{"measurement": "Ki", "setting": "FKBP", "result": "0.9 ± 0.2", "unit": "µM"}]}
